Experimental data: US20030229048A1, “Methods and compositions for inhibition of irritation by disaccharide and metal ions” (priority 2002, published 2003)

Assays:
Assay type in all cases: cell-based, Human
IL-1α [1] = assay: IL-1α release (ELISA) in keratinocyte cells stimulated with methyl salicylate; conditions: substance alone; earlier work of the applicant
IL-1α [2] = assay: as above; conditions: for inhibition of MS induced IL-1α release: summary statement
Description: (§1) Reagents methyl salicylate, ethacrynic acid, trehalose A, B, and C were obtained from Sigma-Aldrich (St. Louis, Mo.). Trehaloses were dissolved in keratinocyte media. Methyl salicylate was diluted in keratinocyte media. Ethacrynic acid was dissolved in DMSO. Keratinocyte cells were grown to 100% confluency as per the instructions given by ATCC. Then the cells were trypsinized to dislodge cells and spun at 3000 rpm for 3 min. The supernatant was aspirated and the cells were re-suspended in fresh media at a density of 1.0×10^6 cells per mL. The cell suspension was the pipetted into a 96-well plate (200 ul of per well) and cells were incubated overnight at 37° C. The next day morning media was aspirated, and 100 uL of fresh medium containing methyl salicylate (2%) was added to all the wells except for the (−) control wells. No MS was included in the (−) control wells. Then 100 uL of medium containing the various test reagents were added to the wells so that the final concentrations were as indicated in FIGS. 2-7. The 96-well plate was then incubated. After incubation for four hours at 36° C., the supernatant from the wells was transferred to centrifuge tubes and centrifuged to remove the cell debris. Then the presence of IL-1α was determined using ELISA kit (R&D systems, Inc.) as per the manufacturer's specifications. The cells remaining in the wells were treated with pre-warmed media containing MTT solution and incubated for four hours. Then the formazan product (metabolic product of MTT) in the wells was solubilized and the absorbance was measured using a plate reader.
Human keratinocytes were stimulated with MS in the absence or the presence of trehalose compounds, to find an optimal concentration of trehalose at which IL- 1α production is reduced by half compared to the positive control.

Keratinocyte cells = assay: MTT assay, cytotoxicity / cell viability of keratinocyte cells
Description: as §1, with “After incubation for four hours at 36° C., the supernatant from the wells was transferred to centrifuge tubes and centrifuged to remove the cell debris.” left out, “The cells remaining in the wells were treated with pre-warmed media containing MTT solution and incubated for four hours.” left out, “reader. […]” for “reader.”

Structure (SMILES): COC(=O)c1ccccc1O [MS, Methyl Salicylate]
- release of primary cytokines, especially IL-1α, in epidermal keratinocytes (IL-1α [1]): stimulates release

Structure (SMILES): OC[C@H]1O[C@H](O[C@H]2O[C@H](CO)[C@@H](O)[C@H](O)[C@H]2O)[C@H](O)[C@@H](O)[C@@H]1O [Trehalose B, trehalose]
- effect on IL-1α levels in Keratinocyte cells stimulated by 1% Methyl Salicylate (IL-1α [2]; FIG. 5, lower concentrations): no effect
- effect on IL-1α levels in Keratinocyte cells stimulated by 1% Methyl Salicylate (IL-1α [2]; any concentrations that were tested, FIGS. 2 and 3): no effect
- effect on IL-1α levels compared to MS 1% (positive control) (IL-1α [2]; at any of 2.5%, 5%, 10%, FIG. 2): no effect
- inhibition of MS induced IL-1α release (IL-1α [2]; concentration not stated, listed as trehalose B): no effect

Structure (SMILES): OC[C@H]1O[C@H](O[C@H]2O[C@H](CO)[C@@H](O)[C@H](O)[C@H]2O)[C@H](O)[C@@H](O)[C@@H]1O [Trehalose C, trehalose]
- inhibition of MS induced IL-1α release (IL-1α [2]; concentration not stated, listed as trehalose C): no effect

Structure (SMILES): OC[C@H]1O[C@H](O[C@H]2O[C@H](CO)[C@@H](O)[C@H](O)[C@H]2O)[C@H](O)[C@@H](O)[C@@H]1O [Trehalose A, trehalose]
- effect on IL-1α levels, MS stimulated (IL-1α [2]; low concentrations of 0.1-2.5%): neither trehalose A nor B showed any effect
- inhibition of MS induced IL-1α release (IL-1α [2]; concentration not stated, listed as trehalose A): capable of inhibiting MS induced IL-1α release
- reduction in IL-1α levels compared to MS 1% (positive control) (IL-1α [2]; test substance at 2.5%, FIG. 2): no effect
- reduction in IL-1α levels compared to MS 1% (positive control) (IL-1α [2]; test substance at 5%, FIG. 2): much lower levels of reduction

Structure (SMILES): C=C(CC)C(=O)c1ccc(OCC(=O)O)c(Cl)c1Cl [Ethacrynic Acid, reference compound]
- inhibition of MS induced IL-1α release (IL-1α [2]; concentration not given): inhibited the IL-1α release by MS
- reduction in IL-1α levels compared to MS 1% (positive control) (IL-1α [2]; test substance at 0.16%, FIG. 2): over 50%

Structure (SMILES): [O]=[Zn] [Zinc Oxide]
- effect on IL-1α levels in Keratinocyte cells stimulated by 1% Methyl Salicylate (IL-1α [2]; FIG. 5, lower concentrations): significant dose dependent decrease
- IL-1α levels in Keratinocyte cells stimulated with 1% Methyl Salicylate (IL-1α [2]; concentration levels 10%-1.25%, FIG. 4): large decrease
- MS stimulated IL-1α levels (IL-1α [2]; high concentrations, FIG. 4): dramatic reduction
- inhibition of MS induced IL-1α release (IL-1α [2]; concentration not given): able to block MS induced IL-1α production as effectively as trehalose A
- reduction in IL-1α concentrations induced by Methyl Salicylate (IL-1α [2]; test substance at 0.000125%, FIG. 5): greater than 50%
- MTT concentration levels in Keratinocyte cells (cell viability) (Keratinocyte cells; concentrations at which ZnO inhibited MS stimulated IL-1α release, FIG. 7): no effect
- state of the cells (Keratinocyte cells; high concentrations of zinc oxide, FIG. 4 experiment): the cells were not active
